In ChEMBL document CHEMBL3397009, “Synthesis and biological evaluation of aryl isoxazole derivatives as metabotropic glutamate receptor 1 antagonists: a potential treatment for neuropathic pain” (Bioorg Med Chem Lett, 2015):
Active and inactive are the calls of the source.

Key:
[1] = target: Metabotropic glutamate receptor 1 (Homo sapiens) (UniProt Q13255); test: Antagonist activity against human mGluR1 expressed in HEK cells assessed as inhibition of L-glutamate-induced intracellular calcium levels at 10 uM after 18 hrs; format: functional, cell-based; conditions: HEK293
CYP3A4 = CYP3A4 (Homo sapiens, UniProt P08684); test: Inhibition of CYP3A4 (unknown origin) assessed as remaining enzyme activity at 10 uM; format: ADME; conditions: read-out: Activity
CYP2C9 = CYP2C9 (Homo sapiens, UniProt P11712); test: Inhibition of CYP2C9 (unknown origin) assessed as remaining enzyme activity at 10 uM; format: ADME; conditions: read-out: Activity
CYP2C19 = CYP2C19 (Homo sapiens, UniProt P33261); test: Inhibition of CYP2C19 (unknown origin) assessed as remaining enzyme activity at 10 uM; format: ADME; conditions: read-out: Activity
CYP1A2 = target: T1, CYP1A2 (Homo sapiens, UniProt P05177); test: Inhibition of CYP1A2 (unknown origin) assessed as remaining enzyme activity at 10 uM; format: ADME; conditions: read-out: Activity
T1 sequence (P05177 whole entry): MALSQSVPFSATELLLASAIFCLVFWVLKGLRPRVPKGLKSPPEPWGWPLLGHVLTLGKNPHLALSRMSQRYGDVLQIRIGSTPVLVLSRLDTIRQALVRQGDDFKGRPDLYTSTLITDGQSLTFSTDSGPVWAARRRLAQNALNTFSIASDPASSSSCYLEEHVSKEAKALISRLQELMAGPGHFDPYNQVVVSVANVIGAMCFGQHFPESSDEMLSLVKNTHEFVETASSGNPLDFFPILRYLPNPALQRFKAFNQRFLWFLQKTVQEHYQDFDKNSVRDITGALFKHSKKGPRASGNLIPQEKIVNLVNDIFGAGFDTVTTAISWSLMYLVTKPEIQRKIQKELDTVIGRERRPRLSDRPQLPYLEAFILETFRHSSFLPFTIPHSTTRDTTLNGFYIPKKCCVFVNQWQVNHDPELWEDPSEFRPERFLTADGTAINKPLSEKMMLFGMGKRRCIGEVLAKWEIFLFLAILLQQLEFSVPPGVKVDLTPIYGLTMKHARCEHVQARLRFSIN

[2] = target: Metabotropic glutamate receptor 5 (Homo sapiens) (UniProt P41594); test: Antagonist activity against human mGluR5 expressed in HEK cells assessed as inhibition of L-glutamate-induced intracellular calcium levels at 1 uM after 18 hrs; format: functional, cell-based; conditions: HEK293
[3] = target: Metabotropic glutamate receptor 5 (Homo sapiens) (UniProt P41594); test: Antagonist activity against human mGluR5 expressed in HEK cells assessed as inhibition of L-glutamate-induced intracellular calcium levels at 10 uM after 18 hrs; format: functional, cell-based; conditions: HEK293
CYP2D6 = CYP2D6 (Homo sapiens, UniProt P10635); test: Inhibition of CYP2D6 (unknown origin) assessed as remaining enzyme activity at 10 uM; format: ADME; conditions: read-out: Activity
[4] = target: Metabotropic glutamate receptor 1 (Homo sapiens) (UniProt Q13255); test: Antagonist activity against human mGluR1 expressed in HEK cells assessed as inhibition of L-glutamate-induced intracellular calcium levels at 1 uM after 18 hrs; format: functional, cell-based; conditions: HEK293
Rattus norvegicus [5] = test: Analgesic activity in rat model of spinal nerve ligation-induced neuropathic pain assessed as reduction in mechanical threshold for paw withdrawal at 100 mg/kg, po administered on day 14 after ligation surgery and measured 3 hrs post dose by Von Frey filaments based method; format: functional, organism-based; set-up: dose 100 mg/kg
Rattus norvegicus [6] = test: Analgesic activity in rat model of spinal nerve ligation-induced neuropathic pain assessed as reduction in cold allodynia by measuring paw withdrawal in response to acetone application at 100 mg/kg, po administered on day 14 after ligation surgery and measured 3 hrs post dose; format: functional, organism-based; set-up: dose 100 mg/kg
[7] = target: Voltage-gated inwardly rectifying potassium channel KCNH2 (Homo sapiens, UniProt Q12809); test: Inhibition of human ERG

Sequence of CYP3A4 (P08684 whole entry): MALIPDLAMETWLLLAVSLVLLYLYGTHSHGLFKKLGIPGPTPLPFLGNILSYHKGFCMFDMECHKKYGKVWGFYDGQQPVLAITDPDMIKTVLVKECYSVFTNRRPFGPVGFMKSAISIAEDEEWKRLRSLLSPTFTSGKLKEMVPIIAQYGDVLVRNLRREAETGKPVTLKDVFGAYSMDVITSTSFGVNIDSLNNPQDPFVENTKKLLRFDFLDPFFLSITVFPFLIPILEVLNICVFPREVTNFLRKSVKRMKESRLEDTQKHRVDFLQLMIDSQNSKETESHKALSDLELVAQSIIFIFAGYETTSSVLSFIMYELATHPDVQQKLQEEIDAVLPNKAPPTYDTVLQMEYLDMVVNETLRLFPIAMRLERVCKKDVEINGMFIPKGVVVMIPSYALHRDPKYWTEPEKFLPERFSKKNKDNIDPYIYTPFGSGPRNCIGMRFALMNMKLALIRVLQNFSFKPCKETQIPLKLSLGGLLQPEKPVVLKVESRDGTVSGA
Sequence of Metabotropic glutamate receptor 1 (Homo sapiens) (Q13255 19-1194 limits assumed): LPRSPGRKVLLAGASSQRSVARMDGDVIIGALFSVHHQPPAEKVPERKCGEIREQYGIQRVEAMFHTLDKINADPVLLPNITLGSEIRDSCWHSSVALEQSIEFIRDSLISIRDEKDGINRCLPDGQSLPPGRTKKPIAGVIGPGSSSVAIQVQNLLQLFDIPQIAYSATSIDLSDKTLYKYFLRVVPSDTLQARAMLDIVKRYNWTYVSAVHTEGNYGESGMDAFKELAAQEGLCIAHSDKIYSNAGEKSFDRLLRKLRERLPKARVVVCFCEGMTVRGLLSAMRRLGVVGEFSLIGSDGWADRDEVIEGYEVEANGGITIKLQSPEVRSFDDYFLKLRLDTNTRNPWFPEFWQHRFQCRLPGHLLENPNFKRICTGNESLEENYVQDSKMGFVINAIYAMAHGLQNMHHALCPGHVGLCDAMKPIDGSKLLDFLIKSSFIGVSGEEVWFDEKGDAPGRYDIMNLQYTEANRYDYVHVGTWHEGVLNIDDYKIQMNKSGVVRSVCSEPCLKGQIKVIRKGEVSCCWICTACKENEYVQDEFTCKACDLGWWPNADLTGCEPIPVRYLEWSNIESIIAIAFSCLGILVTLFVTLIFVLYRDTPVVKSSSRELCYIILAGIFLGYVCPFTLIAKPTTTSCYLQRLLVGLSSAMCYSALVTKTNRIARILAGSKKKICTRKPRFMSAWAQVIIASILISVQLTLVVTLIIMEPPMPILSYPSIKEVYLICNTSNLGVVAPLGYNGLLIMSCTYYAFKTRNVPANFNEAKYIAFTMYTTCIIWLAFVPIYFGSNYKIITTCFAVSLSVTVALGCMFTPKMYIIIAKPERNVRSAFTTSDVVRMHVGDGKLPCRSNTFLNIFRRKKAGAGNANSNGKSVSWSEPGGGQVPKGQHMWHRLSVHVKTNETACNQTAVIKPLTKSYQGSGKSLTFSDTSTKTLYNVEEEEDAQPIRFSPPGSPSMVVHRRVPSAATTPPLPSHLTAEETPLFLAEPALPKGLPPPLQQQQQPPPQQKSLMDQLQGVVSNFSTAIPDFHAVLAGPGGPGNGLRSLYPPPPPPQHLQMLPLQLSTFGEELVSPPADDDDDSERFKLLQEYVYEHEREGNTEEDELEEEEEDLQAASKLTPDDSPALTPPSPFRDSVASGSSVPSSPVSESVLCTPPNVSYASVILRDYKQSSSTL
Sequence of CYP2C9 (P11712 whole entry): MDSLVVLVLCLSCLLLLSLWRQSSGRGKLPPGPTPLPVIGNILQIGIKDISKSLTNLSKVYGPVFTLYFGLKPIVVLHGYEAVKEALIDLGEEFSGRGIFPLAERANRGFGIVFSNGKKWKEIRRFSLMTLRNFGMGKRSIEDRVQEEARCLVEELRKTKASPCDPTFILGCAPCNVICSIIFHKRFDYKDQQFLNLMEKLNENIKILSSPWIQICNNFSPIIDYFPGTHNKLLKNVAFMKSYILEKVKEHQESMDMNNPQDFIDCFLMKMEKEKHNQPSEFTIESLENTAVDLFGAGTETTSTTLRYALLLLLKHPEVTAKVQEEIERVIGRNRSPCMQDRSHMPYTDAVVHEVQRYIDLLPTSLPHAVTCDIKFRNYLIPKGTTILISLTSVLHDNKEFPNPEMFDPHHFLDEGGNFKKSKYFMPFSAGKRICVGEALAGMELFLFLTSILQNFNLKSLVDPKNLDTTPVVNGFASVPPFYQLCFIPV
Sequence of CYP2C19 (P33261 whole entry): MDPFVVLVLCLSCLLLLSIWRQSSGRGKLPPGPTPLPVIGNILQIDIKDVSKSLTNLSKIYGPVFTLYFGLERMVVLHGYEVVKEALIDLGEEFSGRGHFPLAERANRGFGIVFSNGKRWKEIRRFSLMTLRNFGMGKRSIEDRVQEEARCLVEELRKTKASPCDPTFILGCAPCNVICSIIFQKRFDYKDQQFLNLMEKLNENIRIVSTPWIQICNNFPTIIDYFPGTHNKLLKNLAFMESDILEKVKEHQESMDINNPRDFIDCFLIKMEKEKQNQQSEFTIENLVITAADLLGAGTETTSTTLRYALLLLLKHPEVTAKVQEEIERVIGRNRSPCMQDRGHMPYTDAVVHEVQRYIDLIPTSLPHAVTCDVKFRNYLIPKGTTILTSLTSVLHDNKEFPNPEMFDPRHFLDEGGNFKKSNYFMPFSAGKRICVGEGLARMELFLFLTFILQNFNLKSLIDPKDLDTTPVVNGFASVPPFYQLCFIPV
Sequence of Metabotropic glutamate receptor 5 (Homo sapiens) (P41594 21-1212 limits assumed): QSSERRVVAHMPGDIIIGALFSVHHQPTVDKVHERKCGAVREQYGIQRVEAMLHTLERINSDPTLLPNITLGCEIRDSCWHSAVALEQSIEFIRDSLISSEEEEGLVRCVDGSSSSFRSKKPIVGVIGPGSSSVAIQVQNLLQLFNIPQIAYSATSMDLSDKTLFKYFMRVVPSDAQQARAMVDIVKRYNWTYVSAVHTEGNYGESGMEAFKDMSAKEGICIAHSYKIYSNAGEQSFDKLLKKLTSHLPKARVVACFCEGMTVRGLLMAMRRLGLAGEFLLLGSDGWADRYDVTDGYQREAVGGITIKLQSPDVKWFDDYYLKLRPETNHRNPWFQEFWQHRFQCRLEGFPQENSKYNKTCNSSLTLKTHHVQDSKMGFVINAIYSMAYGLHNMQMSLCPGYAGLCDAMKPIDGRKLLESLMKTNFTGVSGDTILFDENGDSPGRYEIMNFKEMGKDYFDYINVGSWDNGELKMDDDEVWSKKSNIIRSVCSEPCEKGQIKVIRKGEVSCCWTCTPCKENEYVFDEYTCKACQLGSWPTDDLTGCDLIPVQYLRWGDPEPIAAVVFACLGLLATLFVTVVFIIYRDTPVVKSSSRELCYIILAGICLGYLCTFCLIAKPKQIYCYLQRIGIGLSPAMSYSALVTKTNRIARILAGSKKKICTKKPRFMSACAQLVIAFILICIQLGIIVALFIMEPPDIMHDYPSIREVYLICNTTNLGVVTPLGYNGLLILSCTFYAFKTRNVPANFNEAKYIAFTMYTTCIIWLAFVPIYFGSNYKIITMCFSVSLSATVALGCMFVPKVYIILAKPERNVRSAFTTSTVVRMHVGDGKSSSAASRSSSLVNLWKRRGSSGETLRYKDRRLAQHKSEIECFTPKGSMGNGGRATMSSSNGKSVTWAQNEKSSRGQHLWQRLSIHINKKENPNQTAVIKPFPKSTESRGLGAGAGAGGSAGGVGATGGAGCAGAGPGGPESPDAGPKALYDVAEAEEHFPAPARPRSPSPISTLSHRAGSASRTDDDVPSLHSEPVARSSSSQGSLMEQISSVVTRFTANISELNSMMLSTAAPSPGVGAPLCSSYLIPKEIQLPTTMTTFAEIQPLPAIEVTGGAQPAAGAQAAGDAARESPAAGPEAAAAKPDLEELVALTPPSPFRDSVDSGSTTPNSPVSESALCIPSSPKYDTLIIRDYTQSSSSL
Sequence of CYP2D6 (P10635 whole entry): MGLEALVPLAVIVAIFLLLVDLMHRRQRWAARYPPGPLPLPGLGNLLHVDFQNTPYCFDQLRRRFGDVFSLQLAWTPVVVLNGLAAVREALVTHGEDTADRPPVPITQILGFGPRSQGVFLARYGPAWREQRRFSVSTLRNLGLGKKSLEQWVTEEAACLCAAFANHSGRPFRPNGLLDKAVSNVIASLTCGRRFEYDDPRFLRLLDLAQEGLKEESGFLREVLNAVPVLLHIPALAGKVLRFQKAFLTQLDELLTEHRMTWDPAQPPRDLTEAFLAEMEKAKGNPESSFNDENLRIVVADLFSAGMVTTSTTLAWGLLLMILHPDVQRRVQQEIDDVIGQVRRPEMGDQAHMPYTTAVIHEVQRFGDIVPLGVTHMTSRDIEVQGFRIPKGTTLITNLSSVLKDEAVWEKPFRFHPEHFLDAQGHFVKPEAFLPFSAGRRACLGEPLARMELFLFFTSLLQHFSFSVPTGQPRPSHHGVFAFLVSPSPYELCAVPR

CC(C)N1Cc2cc(-c3cc(-c4ccccc4F)no3)ccc2C1=O
inhibition [1]: 88.6% | activity at 10 µM (CYP3A4): 107% | activity at 10 µM (CYP2C9): 39.8% | activity at 10 µM (CYP2C19): 58.4% | activity at 10 µM (CYP1A2): 42.5% | inhibition [2]: 21.9% | inhibition [3]: 22.5% | activity at 10 µM (CYP2D6): 45.8% | inhibition [4]: 56.3%

Cc1c(-c2ccc(Cl)cc2)noc1-c1ccc2c(c1)N(C(C)C)C2=O
inhibition [1]: 49.1% | inhibition [2]: 9.46% | inhibition [3]: 28.7% | inhibition [4]: 20.3%

Cc1c(-c2ccc(F)cc2F)noc1-c1ccc2c(c1)CN(C(C)C)C2=O
inhibition [1]: 87.6% | activity at 10 µM (CYP3A4): 98% | activity at 10 µM (CYP2C9): 2.55% | activity at 10 µM (CYP2C19): 59.2% | activity at 10 µM (CYP1A2): 89.6% | inhibition [2]: 7.95% | inhibition [3]: 26.3% | activity at 10 µM (CYP2D6): 104% | inhibition [4]: 31.9%

CC(C)N1C(=O)c2ccc(-c3cc(-c4ccc(Cl)cc4)no3)cc21
inhibition [1]: 33.9% | inhibition [2]: 12.2% | inhibition [3]: 10.3% | inhibition [4]: 16.4%

COc1ccc(-c2noc(-c3ccc4c(c3)CN(C(C)C)C4=O)c2C)cn1
inhibition [1]: 46.5% | inhibition [2]: 33.5% | inhibition [3]: 30.8% | inhibition [4]: 49.1%

COc1ccc(-c2cc(-c3ccc4c(c3)CN(C(C)C)C4=O)on2)cc1
inhibition [1]: 35.1% | inhibition [2]: 15.4% | inhibition [3]: 15.1% | inhibition [4]: 41%

CC(C)N1C(=O)c2ccc(-c3cc(-c4ccc(F)cc4)no3)cc21
inhibition [1]: 50.4% | inhibition [2]: 1.82% | inhibition [3]: 34% | inhibition [4]: 12.8%

Cc1c(-c2ccc(Cl)cc2)noc1-c1ccc2c(c1)CN(C(C)C)C2=O
inhibition [1]: 61.6% | inhibition [2]: 11.7% | inhibition [3]: 23.4% | inhibition [4]: 30.7%

CC(C)N1Cc2cc(-c3cc(-c4ccc(F)cc4F)no3)ccc2C1=O
inhibition [1]: 36.5% | inhibition [2]: 17.7% | inhibition [3]: 13.4% | inhibition [4]: 39.8%

NCC1(CC(=O)O)CCCCC1
Activity (Rattus norvegicus [5]): Active | Activity (Rattus norvegicus [6]): Active

CC(C)N1C(=O)c2ccc(-c3cc(-c4ccccc4F)no3)cc21
inhibition [1]: 91.1% | activity at 10 µM (CYP3A4): 120% | activity at 10 µM (CYP2C9): 32% | activity at 10 µM (CYP2C19): 33.2% | activity at 10 µM (CYP1A2): 98.7% | Activity (Rattus norvegicus [5]): inactive | inhibition [2]: 14.9% | inhibition [3]: 18.3% | activity at 10 µM (CYP2D6): 57.1% | Activity (Rattus norvegicus [6]): inactive | inhibition [4]: 68%

Cc1ccc(-c2cc(-c3ccc4c(c3)CN(C(C)C)C4=O)on2)cc1
inhibition [1]: 25.1% | inhibition [2]: 21.8% | inhibition [3]: 15% | inhibition [4]: 37.4%

Cc1c(-c2ccc(F)cc2)noc1-c1ccc2c(c1)CN(C(C)C)C2=O
inhibition [1]: 62.8% | inhibition [2]: 8.16% | inhibition [3]: 18.7% | inhibition [4]: 38.4%

CC(C)N1C(=O)c2ccc(-c3cc(-c4ccc(Cl)nc4)no3)cc21
inhibition [1]: 7.77% | inhibition [2]: 16.1% | inhibition [3]: 10.1% | inhibition [4]: 12.3%

COc1ccc(-c2cc(-c3ccc4c(c3)N(C(C)C)C4=O)on2)cc1
inhibition [1]: 2.44% | inhibition [2]: 13.6% | inhibition [3]: 15.9% | inhibition [4]: 11.3%

CC(C)N1Cc2cc(-c3cc(-c4cccnc4F)no3)ccc2C1=O
inhibition [1]: 42.3% | inhibition [4]: 23.4%

COc1ccc(-c2cc(-c3ccc4c(c3)CN(C(C)C)C4=O)on2)cn1
inhibition [1]: 59.6% | activity at 10 µM (CYP3A4): 95.6% | activity at 10 µM (CYP2C9): 91.8% | activity at 10 µM (CYP2C19): 85.9% | activity at 10 µM (CYP1A2): 90.7% | IC50 [7]: 12 µM | Activity (Rattus norvegicus [5]): Active | inhibition [2]: 5.29% | inhibition [3]: 29.2% | activity at 10 µM (CYP2D6): 87.5% | Activity (Rattus norvegicus [6]): Active | inhibition [4]: 16.6%

CC(C)N1Cc2cc(-c3cc(-c4ccc(Cl)nc4)no3)ccc2C1=O
inhibition [1]: 47.1% | activity at 10 µM (CYP3A4): 94.5% | activity at 10 µM (CYP2C9): 104% | activity at 10 µM (CYP2C19): 56.6% | activity at 10 µM (CYP1A2): 92.6% | IC50 [7]: 40 µM | Activity (Rattus norvegicus [5]): Active | inhibition [2]: 22.7% | inhibition [3]: 36.5% | activity at 10 µM (CYP2D6): 91.3% | Activity (Rattus norvegicus [6]): Active | inhibition [4]: 45.4%

Cc1c(-c2ccc3c(c2)CN(C(C)C)C3=O)nnn1-c1ccc(F)cc1F
inhibition [1]: 93.1% | Activity (Rattus norvegicus [5]): Active | Activity (Rattus norvegicus [6]): Active | inhibition [4]: 92.5%

COc1ccc(-c2noc(-c3ccc4c(c3)N(C(C)C)C4=O)c2C)cc1
inhibition [1]: 13.7% | inhibition [4]: 9.68%

Cc1c(-c2ccc(Cl)nc2)noc1-c1ccc2c(c1)CN(C(C)C)C2=O
inhibition [1]: 56.9% | inhibition [2]: 22.2% | inhibition [3]: 26.3% | inhibition [4]: 47.1%

CC(C)N1C(=O)c2ccc(-c3cc(-c4ccc(F)cc4F)no3)cc21
inhibition [1]: 17.3% | inhibition [4]: 11.7%

Cc1ccc(-c2cc(-c3ccc4c(c3)CN(C(C)C)C4=O)on2)cn1
inhibition [1]: 62.6% | inhibition [2]: 14% | inhibition [3]: 34.4% | inhibition [4]: 4.53%
